From US5556847A, “Methods of effecting memory enhancement mediated by steroid sulfatase inhibitors” (Duquesne University of the Holy Ghost, priority 1994, dated 1996)
Counter-ions that a name gives are not always drawn.

Legend:
[1] = system: scopolamine-induced amnesia; test: passive avoidance paradigm, reversal of scopolamine-induced amnesia (crossover latency); assay type: in vivo, rats
Experimental: Male rats weighing between 80 and 100 grams were purchased from Hilltop Lab Animals Inc. (Scottdale, Pa.) and housed in hanging wire mesh cages in groups of three with water and rat chow available ad libitum. The room in which the animals were housed was controlled for both temperature and humidity, there was a standard 12 hour, light/dark cycle. To assess memory, the Gemini Avoidance System (San Diego Instruments) was utilized in a standard passive avoidance paradigm. Briefly, the avoidance apparatus consisted of a box (53×53×32 cm) with two compartments connected by an opening with a sliding door. The room in which the rat was placed was brightly lit, while the other room was dark. Initially, the animals were allowed to explore the apparatus and were then removed. During the memory acquisition trial, animals were placed in the light compartment. When an animal entered the dark compartment, the sliding door closed and a mild foot shock (1mA; 1 sec.) was delivered. The rat was then removed from the apparatus and returned to its cage. Twenty-four hours later the rat was again placed in the light side of the apparatus and the time latency to crossing to the dark room recorded. […] The acquisition of memory for the foot shock was assessed as an increased latency period before entering the dark room on the second day. Significant differences in crossover latency were determined by statistical analysis utilizing one-way analysis of a variance with a Dunnett's test post hoc. Significant differences between groups were interpreted as differences in memory acquisition resulting from the various treatments.
To determine the effect of DHEAS on memory, one hour before the acquisition trial […] of ten animals were injected intraperitoneally (IP) with one of the following several doses of DHEAS (5, 10, 20, 30, 50, 70 mg/Kg/ml dissolved saline) or saline. All animals in a given group were administered the same dosage. […] Twenty-four hours later the rats were again placed in the apparatus and the time delay before the animals entered the dark compartment was recorded.
Twenty-four hours later, crossover latency (the time delay before the rats crossed to the dark compartment) for the groups was determined.
(§1) In order to determine whether EMATE alone could enhance memory, four groups of rats (10 animals per group), were injected with EMATE (10 mg/Kg; IP), either four hours before the acquisition trial, or dally for 3, 10 or 15 days before the acquisition trial. Twenty-four hours following the acquisition trial crossover latency was determined. The dally dosage of EMATE was 10 mg/kg which inhibited the sulfatase enzyme for about three to four days.

steroid sulfatase = test: inhibition of steroid sulfatase after dosing; assay type: in vivo
Experimental: as §1
Sulfatase inhibitor EMATE can effect the memory enhancement of peripherally administered DHEAS, a neurosteroid, by inhibiting the metabolism of DHEAS to DHEA. […] A single dose (10 mg/kg) can inhibit greater than 98% of sulfatase after 24 hours. After 10 days of treatment the sulfatase activity in the whole body (including liver, adrenal gland, ovary, uterus and brain) is inhibited. The administration of EMATE alone can alter the equilibrium between the endogenous sulfated and unsulfated forms of neurosteroids in such a way as to enhance memory.

Compound | crossover latency (maximum effect) ([1]; DHEAS 20 mg/Kg IP one hour before acquisition trial, scopolamine 1 mg/Kg IP, latency 24 hours later) [s] | reversal of scopolamine-induced amnesia ([1]; DHEAS 5-70 mg/Kg IP one hour before acquisition trial, scopolamine 1 mg/Kg IP 30 minutes before, bell shaped dose response curve) | sulfatase activity in the whole body (including liver, adrenal gland, ovary, uterus and brain) (steroid sulfatase; after 10 days of treatment) | duration of inhibition of the sulfatase enzyme (steroid sulfatase; dosage 10 mg/kg) | kind of steroid sulfatase inhibition (steroid sulfatase; in vivo) | inhibition of sulfatase (steroid sulfatase; single dose 10 mg/kg, after 24 hours) | reversal of scopolamine-induced amnesia ([1]; EMATE alone 10 mg/Kg IP daily for 10 and 15 days before acquisition trial) | crossover latency ([1]; EMATE alone 10 mg/Kg IP daily for 10 days before acquisition trial) [s] | crossover latency ([1]; EMATE alone 10 mg/Kg IP daily for 15 days before acquisition trial) [s] | effect on crossover latency ([1]; EMATE alone, single dose 10 mg/Kg IP four hours before acquisition trial)
C[C@]12CC[C@H](OS(=O)(=O)O)CC1=CC[C@@H]1[C@@H]2CC[C@]2(C)C(=O)CC[C@@H]12 [DHEAS, dehydroepiandrosterone sulfate, reference compound] | 299.4 ± 83.5 | significant (p≤0.05), reversal of scopolamine-induced amnesia |  |  |  |  |  |  |  | 
C[C@]12CC[C@@H]3c4ccc(OS(N)(=O)=O)cc4CC[C@H]3[C@@H]1CCC2=O [EMATE, estrone - 3-sulfamate] |  |  | inhibited | about three to four | potent irreversible inhibitor | greater than 98% | significant (p≤0.05) reversal of scopolamine-induced amnesia | 263.1 ± 69.7 | 297.0 ± 88.7 | failed to increase crossover latency
